Like-named read-outs stand apart in the source and are kept apart here.
Tested on: acetaminophen-induced hepatotoxicity
Conditions: for Prothrombin time (indicator of hepatic function): FIG. 17
Protocol: Group 1: Untreated control (4 mice in this group only)
Group 2: 3 mg/kg of acetaminophen administered orally on the 7th day from the start of the test
Group 3: 1 mL of the blank micelles (6.25 mg/mL, 160 mg/kg) synthesized in Example 21 forcibly administered once per day via a feeding tube, 3 m g/kg of acetaminophen administered orally on the 7th day from the start of the test.
Group 5: 170 mg/kg of 4-amino-TEMPO forcibly administered once per day via a feeding tube, 3 mg/kg of acetaminophen administered orally on the 7th day from the start of the test.
Group 6: 600 mg/kg of acetylcysteine forcibly administered once per day via a feeding tube, 3 mg/kg of acetaminophen administered orally on the 7th day from the start of the test.

[1] = 6 mice before test, substance once per day by feeding tube (newRNP^N Example 16, m=13, 160 mg/kg; 4-amino-TEMPO 170 mg/kg; acetylcysteine 600 mg/kg), 3 mg/kg acetaminophen orally on 7th day
[2] = oral once per day, 3 mg/kg acetaminophen on 7th day, newRNP^N m=13

Row | Structure (SMILES) | Numbers of mice alive, After test (IGS, mouse, in vivo, po, 3 mg/kg, 1 day) | Share of mice that died within 1 day (acetaminophen alone, 3 mg/kg orally (group 2)) | Superoxide dismutase (SOD) production (oral once per day, 3 mg/kg acetaminophen on 7th day, newRNP^N m=13, FIG. 18) | Numbers of mice alive, After test [1] | Prothrombin time (indicator of hepatic function) [2] | Toxicity by albumin quantity and AST, ALT and ALP enzyme levels (oral once per day, 3 mg/kg acetaminophen on 7th day, newRNP^N m=13, FIGS. 19 to 22)
1 | CC(=O)Nc1ccc(O)cc1 [acetaminophen] | 2 | two thirds | significant decrease |  |  | 
2 | CC(=O)N[C@@H](CS)C(=O)O [acetylcysteine] |  |  |  | 4 | extended | 
3 | CC1(C)CC(N)CC(C)(C)N1[O] [4-amino-TEMPO] |  |  |  | 2 | extended | extremely high toxicity
